Tests used:
[1] = molecular target: T1, Prostaglandin G/H synthase 1 (Rattus norvegicus, UniProt Q63921); format: functional
T1 sequence (Q63921 whole entry): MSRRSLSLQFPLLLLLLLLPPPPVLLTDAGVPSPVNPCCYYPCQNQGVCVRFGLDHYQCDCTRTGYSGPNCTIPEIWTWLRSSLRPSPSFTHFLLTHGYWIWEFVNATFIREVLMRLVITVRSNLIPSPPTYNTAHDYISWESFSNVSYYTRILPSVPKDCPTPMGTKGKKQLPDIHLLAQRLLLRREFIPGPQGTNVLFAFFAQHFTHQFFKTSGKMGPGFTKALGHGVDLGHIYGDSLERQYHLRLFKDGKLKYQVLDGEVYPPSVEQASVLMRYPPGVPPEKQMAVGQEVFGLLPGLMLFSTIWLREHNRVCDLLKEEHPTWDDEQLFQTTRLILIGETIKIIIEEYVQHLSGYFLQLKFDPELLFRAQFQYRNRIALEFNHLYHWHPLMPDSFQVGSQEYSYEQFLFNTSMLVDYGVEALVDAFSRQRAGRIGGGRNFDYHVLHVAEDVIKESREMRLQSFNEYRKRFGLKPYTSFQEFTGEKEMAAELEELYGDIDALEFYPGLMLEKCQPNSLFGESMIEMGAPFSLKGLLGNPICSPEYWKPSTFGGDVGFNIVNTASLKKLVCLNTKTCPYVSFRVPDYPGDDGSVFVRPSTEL

[2] = molecular target: 5-hydroxytryptamine receptor 2B (Homo sapiens, UniProt P41595); format: functional, cell-based
[3] = molecular target: T2, Amine oxidase [flavin-containing] A (Homo sapiens, UniProt P21397); format: functional
T2 sequence (P21397 whole entry): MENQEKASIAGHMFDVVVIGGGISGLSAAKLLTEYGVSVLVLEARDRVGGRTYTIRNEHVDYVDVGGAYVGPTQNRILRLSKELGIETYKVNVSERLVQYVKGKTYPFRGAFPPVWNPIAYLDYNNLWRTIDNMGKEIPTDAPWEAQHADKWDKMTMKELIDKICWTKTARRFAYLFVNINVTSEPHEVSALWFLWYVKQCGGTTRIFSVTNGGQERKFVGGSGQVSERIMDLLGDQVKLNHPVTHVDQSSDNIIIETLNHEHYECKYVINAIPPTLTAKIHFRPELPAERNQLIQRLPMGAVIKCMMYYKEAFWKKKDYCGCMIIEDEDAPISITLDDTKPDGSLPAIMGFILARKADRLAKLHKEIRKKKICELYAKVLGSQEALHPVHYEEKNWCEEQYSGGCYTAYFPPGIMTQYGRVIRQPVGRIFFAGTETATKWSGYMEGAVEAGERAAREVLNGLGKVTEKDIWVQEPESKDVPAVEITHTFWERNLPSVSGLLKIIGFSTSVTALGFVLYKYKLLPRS

[4] = molecular target: Sodium-dependent noradrenaline transporter (Homo sapiens, UniProt P23975)
[5] = molecular target: Prostaglandin G/H synthase 1 (Homo sapiens, UniProt P23219); format: functional
Thromboxane A2 receptor = molecular target: T3, Thromboxane A2 receptor (Homo sapiens, UniProt P21731); format: functional, cell-based
T3 sequence (P21731 whole entry): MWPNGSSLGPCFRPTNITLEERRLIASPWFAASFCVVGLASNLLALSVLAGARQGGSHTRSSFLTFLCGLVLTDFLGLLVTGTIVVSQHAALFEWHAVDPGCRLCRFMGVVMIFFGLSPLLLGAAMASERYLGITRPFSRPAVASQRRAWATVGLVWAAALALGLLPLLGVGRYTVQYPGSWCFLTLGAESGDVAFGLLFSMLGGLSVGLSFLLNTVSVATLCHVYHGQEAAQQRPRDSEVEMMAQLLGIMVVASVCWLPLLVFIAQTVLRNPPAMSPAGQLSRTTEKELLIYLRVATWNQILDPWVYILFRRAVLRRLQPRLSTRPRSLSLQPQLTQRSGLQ

[6] = molecular target: T4, 5-hydroxytryptamine receptor 1A (Homo sapiens, UniProt P08908)
T4 sequence (P08908 whole entry): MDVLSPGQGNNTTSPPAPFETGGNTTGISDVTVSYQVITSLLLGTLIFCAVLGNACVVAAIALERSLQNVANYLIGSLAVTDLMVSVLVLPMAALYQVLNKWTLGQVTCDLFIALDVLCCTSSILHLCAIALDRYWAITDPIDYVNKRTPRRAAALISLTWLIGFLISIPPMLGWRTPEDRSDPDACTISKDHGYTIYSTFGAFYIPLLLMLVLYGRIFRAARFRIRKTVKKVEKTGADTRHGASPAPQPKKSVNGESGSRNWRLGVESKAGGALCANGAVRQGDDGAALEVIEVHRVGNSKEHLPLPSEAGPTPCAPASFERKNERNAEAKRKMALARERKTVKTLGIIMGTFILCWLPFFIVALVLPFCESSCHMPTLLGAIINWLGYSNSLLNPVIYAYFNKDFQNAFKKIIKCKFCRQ

[7] = molecular target: 3',5'-cyclic-AMP phosphodiesterase 4A (Homo sapiens, UniProt P27815); format: functional
[8] = molecular target: T5, Alpha-2A adrenergic receptor (Homo sapiens, UniProt P08913)
T5 sequence (P08913 whole entry): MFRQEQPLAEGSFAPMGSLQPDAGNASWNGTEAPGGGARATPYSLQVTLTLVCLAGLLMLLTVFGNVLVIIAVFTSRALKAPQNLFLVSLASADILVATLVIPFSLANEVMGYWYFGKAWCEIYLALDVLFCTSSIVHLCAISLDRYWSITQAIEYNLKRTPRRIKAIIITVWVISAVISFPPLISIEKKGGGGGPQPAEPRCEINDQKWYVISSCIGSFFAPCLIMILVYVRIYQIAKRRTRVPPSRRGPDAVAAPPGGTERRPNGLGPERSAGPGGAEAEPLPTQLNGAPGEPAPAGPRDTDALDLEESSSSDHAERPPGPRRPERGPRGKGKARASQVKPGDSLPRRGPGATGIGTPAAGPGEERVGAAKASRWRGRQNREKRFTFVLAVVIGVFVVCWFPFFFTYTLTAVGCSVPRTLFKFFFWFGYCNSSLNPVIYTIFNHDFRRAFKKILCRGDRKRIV

[9] = molecular target: Sodium-dependent dopamine transporter (Homo sapiens, UniProt Q01959)
Mu-type opioid receptor = Mu-type opioid receptor (Homo sapiens, UniProt P35372)
Further: assay procedure not described here.

Chain of 3',5'-cyclic-AMP phosphodiesterase 4A (P27815 whole entry): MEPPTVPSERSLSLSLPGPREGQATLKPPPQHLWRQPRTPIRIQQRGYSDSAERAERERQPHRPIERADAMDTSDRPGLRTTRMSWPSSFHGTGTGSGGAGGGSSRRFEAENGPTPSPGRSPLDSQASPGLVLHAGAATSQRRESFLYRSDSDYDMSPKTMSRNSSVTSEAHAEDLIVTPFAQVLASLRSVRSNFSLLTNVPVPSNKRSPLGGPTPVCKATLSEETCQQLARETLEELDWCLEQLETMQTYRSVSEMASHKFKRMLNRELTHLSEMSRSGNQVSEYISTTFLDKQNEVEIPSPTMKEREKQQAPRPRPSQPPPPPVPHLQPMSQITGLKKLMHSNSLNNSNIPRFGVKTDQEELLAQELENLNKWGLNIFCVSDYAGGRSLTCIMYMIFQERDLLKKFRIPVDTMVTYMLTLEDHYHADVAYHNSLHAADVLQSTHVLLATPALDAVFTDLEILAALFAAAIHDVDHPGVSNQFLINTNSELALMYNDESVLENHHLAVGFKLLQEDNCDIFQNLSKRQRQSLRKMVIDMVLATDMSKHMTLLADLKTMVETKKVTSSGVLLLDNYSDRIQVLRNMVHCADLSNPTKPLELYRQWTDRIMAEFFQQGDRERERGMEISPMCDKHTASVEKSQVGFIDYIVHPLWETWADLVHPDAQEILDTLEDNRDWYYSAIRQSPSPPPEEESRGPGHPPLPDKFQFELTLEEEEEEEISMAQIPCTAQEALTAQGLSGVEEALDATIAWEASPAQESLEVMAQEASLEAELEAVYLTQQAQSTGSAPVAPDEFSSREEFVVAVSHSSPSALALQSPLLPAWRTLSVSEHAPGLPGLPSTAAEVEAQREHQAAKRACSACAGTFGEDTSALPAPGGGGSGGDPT
Chain of Mu-type opioid receptor (P35372 whole entry): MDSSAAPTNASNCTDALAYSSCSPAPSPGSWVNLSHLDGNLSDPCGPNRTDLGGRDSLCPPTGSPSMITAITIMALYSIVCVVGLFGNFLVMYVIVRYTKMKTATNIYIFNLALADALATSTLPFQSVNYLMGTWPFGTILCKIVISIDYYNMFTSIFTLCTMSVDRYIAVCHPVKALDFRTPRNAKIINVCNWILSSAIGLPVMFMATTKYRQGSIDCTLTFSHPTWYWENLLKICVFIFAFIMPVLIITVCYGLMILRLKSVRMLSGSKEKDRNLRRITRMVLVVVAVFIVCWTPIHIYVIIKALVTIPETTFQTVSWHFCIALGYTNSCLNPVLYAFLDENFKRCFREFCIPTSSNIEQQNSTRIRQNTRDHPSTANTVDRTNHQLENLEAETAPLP
Chain of 5-hydroxytryptamine receptor 2B (P41595 whole entry): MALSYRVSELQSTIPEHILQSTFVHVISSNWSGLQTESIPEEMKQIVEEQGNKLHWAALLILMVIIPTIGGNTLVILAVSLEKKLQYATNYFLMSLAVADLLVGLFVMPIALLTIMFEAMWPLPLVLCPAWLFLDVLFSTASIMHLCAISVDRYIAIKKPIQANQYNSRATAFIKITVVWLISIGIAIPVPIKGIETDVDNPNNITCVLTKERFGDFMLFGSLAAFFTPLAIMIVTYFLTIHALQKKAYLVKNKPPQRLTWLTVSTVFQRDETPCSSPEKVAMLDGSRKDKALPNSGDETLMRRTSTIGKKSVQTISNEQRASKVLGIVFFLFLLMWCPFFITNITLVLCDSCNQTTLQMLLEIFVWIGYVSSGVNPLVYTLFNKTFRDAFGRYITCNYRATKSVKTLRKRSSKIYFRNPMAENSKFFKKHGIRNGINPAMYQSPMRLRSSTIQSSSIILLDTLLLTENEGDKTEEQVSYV
Chain of Sodium-dependent dopamine transporter (Q01959 whole entry): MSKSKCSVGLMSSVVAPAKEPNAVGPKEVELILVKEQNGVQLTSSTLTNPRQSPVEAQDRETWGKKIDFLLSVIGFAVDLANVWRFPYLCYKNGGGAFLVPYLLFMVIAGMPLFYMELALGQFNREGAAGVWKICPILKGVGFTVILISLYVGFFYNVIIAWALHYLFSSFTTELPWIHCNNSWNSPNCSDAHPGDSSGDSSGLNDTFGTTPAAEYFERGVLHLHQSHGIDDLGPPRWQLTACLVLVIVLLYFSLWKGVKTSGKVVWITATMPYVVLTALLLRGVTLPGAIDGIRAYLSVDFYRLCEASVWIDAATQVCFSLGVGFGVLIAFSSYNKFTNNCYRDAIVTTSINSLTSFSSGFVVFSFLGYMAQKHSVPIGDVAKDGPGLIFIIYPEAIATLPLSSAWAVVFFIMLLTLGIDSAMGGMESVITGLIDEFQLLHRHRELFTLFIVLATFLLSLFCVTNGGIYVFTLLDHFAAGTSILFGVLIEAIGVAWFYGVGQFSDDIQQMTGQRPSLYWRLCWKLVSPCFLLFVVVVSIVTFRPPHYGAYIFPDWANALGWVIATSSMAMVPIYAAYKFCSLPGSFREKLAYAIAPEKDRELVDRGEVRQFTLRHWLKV
Chain of Prostaglandin G/H synthase 1 (Homo sapiens, UniProt P23219) (P23219 whole entry): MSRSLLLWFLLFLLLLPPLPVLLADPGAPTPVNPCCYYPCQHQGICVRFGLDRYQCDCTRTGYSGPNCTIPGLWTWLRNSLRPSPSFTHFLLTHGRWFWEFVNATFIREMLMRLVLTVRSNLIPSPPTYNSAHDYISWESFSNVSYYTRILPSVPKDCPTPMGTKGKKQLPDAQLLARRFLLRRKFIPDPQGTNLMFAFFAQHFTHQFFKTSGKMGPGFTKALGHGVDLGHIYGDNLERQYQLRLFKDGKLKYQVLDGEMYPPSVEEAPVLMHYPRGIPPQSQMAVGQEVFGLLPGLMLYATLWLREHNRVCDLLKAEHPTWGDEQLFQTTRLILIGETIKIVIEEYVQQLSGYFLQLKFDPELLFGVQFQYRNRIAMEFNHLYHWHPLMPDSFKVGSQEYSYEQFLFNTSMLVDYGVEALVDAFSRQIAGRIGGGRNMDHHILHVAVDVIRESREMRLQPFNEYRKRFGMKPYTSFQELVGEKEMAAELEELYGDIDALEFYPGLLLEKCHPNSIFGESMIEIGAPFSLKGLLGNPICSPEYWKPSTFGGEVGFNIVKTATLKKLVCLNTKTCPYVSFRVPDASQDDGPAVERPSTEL
Chain of Sodium-dependent noradrenaline transporter (P23975 whole entry): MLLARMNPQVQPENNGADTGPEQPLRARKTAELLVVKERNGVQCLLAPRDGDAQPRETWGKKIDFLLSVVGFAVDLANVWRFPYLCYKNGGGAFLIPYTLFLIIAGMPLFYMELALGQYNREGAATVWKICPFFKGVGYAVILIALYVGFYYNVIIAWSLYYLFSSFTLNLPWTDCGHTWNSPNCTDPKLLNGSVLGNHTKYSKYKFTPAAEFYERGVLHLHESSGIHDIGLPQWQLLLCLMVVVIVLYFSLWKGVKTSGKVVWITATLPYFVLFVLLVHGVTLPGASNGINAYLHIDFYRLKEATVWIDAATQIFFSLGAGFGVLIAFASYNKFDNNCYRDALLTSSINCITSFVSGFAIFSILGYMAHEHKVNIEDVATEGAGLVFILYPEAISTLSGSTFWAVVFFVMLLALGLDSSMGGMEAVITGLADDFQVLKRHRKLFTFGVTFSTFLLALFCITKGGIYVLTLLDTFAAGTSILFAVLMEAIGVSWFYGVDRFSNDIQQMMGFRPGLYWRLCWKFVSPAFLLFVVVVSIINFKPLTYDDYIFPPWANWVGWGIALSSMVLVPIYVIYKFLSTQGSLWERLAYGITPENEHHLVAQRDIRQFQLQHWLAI

Q: Which AC50 [1] does the source give for `CCOC(=O)c1ncn2c1CN(C)C(=O)c1cc(F)ccc1-2` [FLUMAZENIL] here?
A: > 30 µM

Q: Which results are given for `CCN(CC)CCCC(C)Nc1c2ccc(Cl)cc2nc2ccc(OC)cc12` (stereo unspecified) [QUINACRINE]?
A: AC50 [2]: > 30 µM; AC50 [3]: > 30 µM; AC50 [4]: 6.92 µM; AC50 [5]: > 30 µM; AC50 (Thromboxane A2 receptor): > 1 µM; AC50 [6]: 2.26 µM; AC50 [7]: > 10 µM; AC50 [8]: 11.9 µM; AC50 [9]: 18.4 µM; AC50 (Mu-type opioid receptor): 5.86 µM

Source: ChEMBL document CHEMBL5291721, “A preclinical secondary pharmacology resource illuminates target-adverse drug reaction associations of marketed drugs” (Nat Commun, 2023)
